Measurements reported in patent US20260262643A1, “HERBICIDAL BENZOXAZINES” (FMC CORPORATION, priority 2022, published 2026).

Experiments:
blackgrass [1] = experiment: Test C preemergence; type: in vivo, Alopecurus myosuroides
Procedure, shortened: (§1)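 Visual injury score, 0–100 (100 = complete control), taken 10 days after treatment relative to untreated controls. Pre: directed spray onto soil over sown seeds. Post: foliar spray at one- to two-leaf stage, 2–10 cm. Solvent/surfactant formulation; loam–sand soil; greenhouse.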

soybean [2] = experiment: Test C postemergence; type: in vivo, Glycine max; conditions: Postemergence, 125 g ai/ha; 0 to 100 scale (0 no effect, 100 complete control), 10 days
Procedure, shortened: as §1

ryegrass, Italian [3] = experiment: Test C preemergence; type: in vivo, Lolium multiflorum
Procedure, shortened: as §1

ryegrass, Italian [4] = experiment: Test C postemergence; type: in vivo, Lolium multiflorum; conditions: Postemergence, 125 g ai/ha; 0 to 100 scale (0 no effect, 100 complete control), 10 days
Procedure, shortened: as §1

ragweed [5] = experiment: Test C postemergence; type: in vivo, Ambrosia artemisiifolia; conditions: Postemergence, 125 g ai/ha; 0 to 100 scale (0 no effect, 100 complete control), 10 days
Procedure, shortened: as §1

sedge, umbrella = experiment: Test D flooded paddy test; type: in vivo, Cyperus difformis; conditions: 250 g ai/ha, applied to paddy water, visual rating after 13 to 14 days, scale 0 to 100 (0 no effect, 100 complete control)
Procedure, shortened: (§2)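 Plants at the 2-leaf stage were grown in pots flooded to 3 cm, and compound was applied directly into the paddy water, with depth kept throughout. After 13–14 days in a greenhouse, injury was rated visually against untreated controls on a 0–100 scale (100 = complete control); a dash means not tested.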

ducksalad = experiment: Test D flooded paddy test; type: in vivo, Heteranthera limosa; conditions: 250 g ai/ha, applied to paddy water, visual rating after 13 to 14 days, scale 0 to 100 (0 no effect, 100 complete control)
Procedure, shortened: as §2

corn [6] = experiment: Test C postemergence; type: in vivo, Zea mays; conditions: 10 days, 0 to 100 scale (0 no effect, 100 complete control)
Procedure, shortened: as §1

barnyardgrass [7] = experiment: Test C postemergence; type: in vivo, Echinochloa crusgalli; conditions: 10 days, 0 to 100 scale (0 no effect, 100 complete control)
Procedure, shortened: as §1

blackgrass [8] = experiment: Test C postemergence; type: in vivo, Alopecurus myosuroides; conditions: 10 days, 0 to 100 scale (0 no effect, 100 complete control)
Procedure, shortened: as §1

green foxtail [9] = experiment: Test C postemergence; type: in vivo, Setaria viridis; conditions: 10 days, 0 to 100 scale (0 no effect, 100 complete control)
Procedure, shortened: as §1

corn [10] = experiment: Test C preemergence; type: in vivo, Zea mays
Procedure, shortened: as §1

wheat [11] = experiment: Test C postemergence; type: in vivo, Triticum aestivum; conditions: Postemergence, 125 g ai/ha; 0 to 100 scale (0 no effect, 100 complete control), 10 days
Procedure, shortened: as §1

kochia [12] = experiment: Test C postemergence; type: in vivo, Bassia scoparia; conditions: 10 days, 0 to 100 scale (0 no effect, 100 complete control)
Procedure, shortened: as §1

oat, wild [13] = experiment: Test C postemergence; type: in vivo, Avena fatua; conditions: 10 days, 0 to 100 scale (0 no effect, 100 complete control)
Procedure, shortened: as §1

soybean [14] = experiment: Test C preemergence; type: in vivo, Glycine max
Procedure, shortened: as §1

ragweed [15] = experiment: Test C preemergence; type: in vivo, Ambrosia artemisiifolia
Procedure, shortened: as §1

wheat [16] = experiment: Test C preemergence; type: in vivo, Triticum aestivum
Procedure, shortened: as §1

oat, wild [17] = experiment: Test C preemergence; type: in vivo, Avena fatua
Procedure, shortened: as §1

green foxtail [18] = experiment: Test C preemergence; type: in vivo, Setaria viridis
Procedure, shortened: as §1

barnyardgrass [19] = experiment: Test C preemergence; type: in vivo, Echinochloa crusgalli
Procedure, shortened: as §1

kochia [20] = experiment: Test C preemergence; type: in vivo, Bassia scoparia
Procedure, shortened: as §1

horseweed = experiment: Test C postemergence; type: in vivo, Erigeron canadensis; conditions: 10 days, 0 to 100 scale (0 no effect, 100 complete control)
Procedure, shortened: as §1

rice = experiment: Test D flooded paddy test; type: in vivo, Oryza sativa; conditions: 250 g ai/ha, applied to paddy water, visual rating after 13 to 14 days, scale 0 to 100 (0 no effect, 100 complete control)
Procedure, shortened: as §2

pigweed, palmer [21] = experiment: Test C preemergence; type: in vivo, Amaranthus palmeri
Procedure, shortened: as §1

pigweed, palmer [22] = experiment: Test C postemergence; type: in vivo, Amaranthus palmeri; conditions: 10 days, 0 to 100 scale (0 no effect, 100 complete control)
Procedure, shortened: as §1

barnyardgrass [23] = experiment: Test D flooded paddy test; type: in vivo, Echinochloa crus-galli; conditions: 250 g ai/ha, applied to paddy water, visual rating after 13 to 14 days, scale 0 to 100 (0 no effect, 100 complete control)
Procedure, shortened: as §2

[24] = 500 g ai/ha, preemergence, 0 to 100 scale (0 no effect, 100 complete control)
[25] = Preemergence, 125 g ai/ha, 0 to 100 scale, 0 no effect, 100 complete control

Cc1ccc(-n2cnc(C3(C#N)CC3)n2)cc1C(=O)N1C[C@H](C)Oc2c(Cl)cccc21 [Compound 398]
Blackgrass plant response rating (blackgrass [1]; [24]): 40 | Plant response rating, Blackgrass (blackgrass [1]; [25]): 30 | Plant response rating, Soybean (soybean [2]): 20 | Ryegrass, Italian plant response rating (ryegrass, Italian [3]; [24]): 80 | Plant response rating, Ryegrass, Italian (ryegrass, Italian [3]; [25]): 40 | Plant response rating, Ryegrass, Italian (ryegrass, Italian [4]): 30 | Plant response rating, Ragweed (ragweed [5]): 70 | Plant response rating, Sedge, Umbrella (Flood) (sedge, umbrella): 45 | Plant response rating, Ducksalad (Flood) (ducksalad): 15 | Plant response rating, Corn (corn [6]; 500 g ai/ha, postemergence): 80 | Plant response rating, Corn (corn [6]; Postemergence, 125 g ai/ha): 10 | Plant response rating, Barnyardgrass (barnyardgrass [7]; 500 g ai/ha, postemergence): 50 | Plant response rating, Barnyardgrass (barnyardgrass [7]; Postemergence, 125 g ai/ha): 20 | Plant response rating, Blackgrass (blackgrass [8]; 500 g ai/ha, postemergence): 90 | Plant response rating, Blackgrass (blackgrass [8]; Postemergence, 125 g ai/ha): 70 | Plant response rating, Foxtail, Green (green foxtail [9]; 500 g ai/ha, postemergence): 90 | Plant response rating, Foxtail, Green (green foxtail [9]; Postemergence, 125 g ai/ha): 70 | Corn plant response rating (corn [10]; [24]): 0 | Plant response rating, Corn (corn [10]; [25]): 0 | Plant response rating, Wheat (wheat [11]): 20 | Plant response rating, Kochia (kochia [12]; 500 g ai/ha, postemergence): 90 | Plant response rating, Kochia (kochia [12]; Postemergence, 125 g ai/ha): 90 | Plant response rating, Oat, Wild (oat, wild [13]; 500 g ai/ha, postemergence): 60 | Plant response rating, Oat, Wild (oat, wild [13]; Postemergence, 125 g ai/ha): 0 | Soybean plant response rating (soybean [14]; [24]): 60 | Plant response rating, Soybean (soybean [14]; [25]): 40 | Ragweed plant response rating (ragweed [15]; [24]): 30 | Plant response rating, Ragweed (ragweed [15]; [25]): 0 | Wheat plant response rating (wheat [16]; [24]): 20 | Plant response rating, Wheat (wheat [16]; [25]): 0 | Oat, Wild plant response rating (oat, wild [17]; [24]): 40 | Plant response rating, Oat, Wild (oat, wild [17]; [25]): 0 | Foxtail, Green plant response rating (green foxtail [18]; [24]): 100 | Plant response rating, Foxtail, Green (green foxtail [18]; [25]): 100 | Barnyardgrass plant response rating (barnyardgrass [19]; [24]): 90 | Plant response rating, Barnyardgrass (barnyardgrass [19]; [25]): 60 | Kochia plant response rating (kochia [20]; [24]): 100 | Plant response rating, Kochia (kochia [20]; [25]): 90 | Plant response rating, Horseweed (horseweed; 500 g ai/ha, postemergence): 60 | Plant response rating, Horseweed (horseweed; Postemergence, 125 g ai/ha): 60 | Plant response rating, Rice (Flood) (rice): 15 | Pigweed, Palmer plant response rating (pigweed, palmer [21]; [24]): 100 | Plant response rating, Pigweed, Palmer (pigweed, palmer [21]; [25]): 100 | Plant response rating, Pigweed, Palmer (pigweed, palmer [22]; 500 g ai/ha, postemergence): 100 | Plant response rating, Pigweed, Palmer (pigweed, palmer [22]; Postemergence, 125 g ai/ha): 90 | Plant response rating, Barnyardgrass (Flood) (barnyardgrass [23]): 25
